Each structure is given as a SMILES string.

Format in all cases: in vivo
Series [1] deals with Brachiaria decumbens (BRADC). Description: Biological Example 3 glasshouse assay using various adjuvant systems, post-emergence foliar spray. The note with it: 8 g/ha. The method, then: (§1) Post-emergence foliar spray application, 200 L/ha, usually one or two replicates for the weeds (depending on application rate), and two replicates for soybean.
(§2) Standard warm conditions (tropical), in glasshouse. Specifically, the glasshouse bay conditions are 24° C./18° C. day/night; 16/8 hours light/dark; 65% humidity.
(§3) The herbicidal application takes place at the following growth stages for plants which include inter alia one or more of the following plants (usually the herbicidal application takes place on at least the following plants: DIGSA, ELEIN, SETFA, ZEAMX, GLXMA Nikko, and GLXMA TMG133, and often also either BRADC or BRAPP):
Brachiaria decumbens (BRADC)—growth stage (GS) 12 or 13 (or GS 12)—or, if BRADC is not used, then usually Brachiaria platyphylla (BRAPP)—growth stage 12 or 13
(§4) Each test compound is applied with one of the following adjuvant systems (all percentages are final concentrations in the aqueous spray mixture):
(§5) Adjuvant system 1: 0.5% v/v Adigor™ *, 1.0% v/v AMS (ammonium sulphate) and 12.5% v/v IPA (isopropyl alcohol).
(§6) Adjuvant system 1A: 0.5% v/v Adigor™ * and 12.5% v/v IPA (isopropyl alcohol).
CAS Registry no. 166412-78-8), and is usually available from BASF. “Isononyl” in this context is thought to mean a mixture of two or more branched isomers of C9H19. […] A visual assessment of the % herbicidal damage is made 7 and 14 Days After herbicide Application (DAA) (or, in a minority of cases, 7 and 15 DAA), and the results are recorded as % visual herbicidal damage where 0%=no damage to plants and 100%=plant totally killed. *** Adjuvant system=either Adigor™ or Hexamoll DINCH™ or tris-(2-ethylhexyl) phosphate each at 0.5% v/v, and 12.5% v/v IPA (isopropyl alcohol), and 1.0% v/v AMS (ammonium sulphate); or 0.5% v/v Adigor™ and 12.5% v/v IPA (isopropyl alcohol); all percentages are final concentrations in the aqueous spray mixture. […]

In series [2] the test system is Glycine max (GLXMA, soybean) cultivar Nikko. The series is described as above. The note with it: for percentage phytotoxicity on Glycine max (GLXMA, soybean) cultivar Nikko: post-emergence. The method, then: as §1, §2, §3
Glycine max (GLXMA, soybean) cultivar “Nikko”—growth stage: 1st trifoliate
as §4, §5, §6
CAS Registry no. 166412-78-8), and is usually available from BASF. “Isononyl” in this context is thought to mean a mixture of two or more branched isomers of C9H19. Method: Seeds of the weed (including volunteer) plants, typically including inter alia Digitaria sanguinalis (DIGSA), Eleusine indica (ELEIN), Setaria faberi (SETFA), Zea mays (ZEAMX, corn), and sometimes also [either Brachiaria decumbens (BRADC) or Brachiaria platyphylla (BRAPP)], are sown in seed trays (troughs) containing clay loam soil (pH 7.0, 2.2% organic matter, “Trough Mix A”); and soybean seed is sown in pots containing the same soil with 3 soybean seedlings per pot. The plants are sprayed with the test herbicide when they reach the growth stages mentioned above. The test herbicidal solutions are prepared by mixing the appropriate aliquots of the test substance(s) and one of the adjuvant systems indicated above *** in deionised water to give the desired treatment concentration. The herbicidal application is made as a foliar spray, using a tracksprayer. Following the herbicidal application, the plants are watered twice per day for the duration of the test. A visual assessment of the % herbicidal damage is made 7 and 14 Days After herbicide Application (DAA) (or, in a minority of cases, 7 and 15 DAA), and the results are recorded as % visual herbicidal damage where 0%=no damage to plants and 100%=plant totally killed. *** Adjuvant system=either Adigor™ or Hexamoll DINCH™ or tris-(2-ethylhexyl) phosphate each at 0.5% v/v, and 12.5% v/v IPA (isopropyl alcohol), and 1.0% v/v AMS (ammonium sulphate); or 0.5% v/v Adigor™ and 12.5% v/v IPA (isopropyl alcohol); all percentages are final concentrations in the aqueous spray mixture.
Compounds A8, A11 and A17, which are compounds of formula (I) according to the present invention, were tested in a test method substantially as described above.
Compound A8 was tested using the 0.5% v/v Adigor™+12.5% v/v IPA adjuvant system. Compounds A11 and A17 were tested using the 0.5% v/v Adigor™+1.0% v/v AMS+12.5% v/v IPA adjuvant system.
The percentages of herbicidal damage/plant control, at 14 Days After herbicide Application (DAA) (or, in a minority of cases, at 15 DAA), for the Compounds tested and for some of the plants tested, were in the following percentage ranges. At least for Compounds A8 and A17, the phytotoxicity results shown herein are the average of 2 repetitions (for the grassy weeds, corn and soybean). […] Control of Zea mays (ZEAMX, Corn), a Warm-Climate (Warm-Season) Grassy Plant Zea mays (ZEAMX, maize, corn) is often present as a “volunteer” weed (“volunteer” corn) in fields where it was planted as a crop in preceding growing season(s) and where the present field crop is not corn. […]

Another series deals with Eleusine indica (ELEIN). The series is described as above. The note with it: 8 g/ha. The method, then:
as §1, §2, §3
Eleusine indica (ELEIN)—growth stage 12 or 13
as §4, §5, §6
CAS Registry no. […] A visual assessment of the % herbicidal damage is made 7 and 14 Days After herbicide Application (DAA) (or, in a minority of cases, 7 and 15 DAA), and the results are recorded as % visual herbicidal damage where 0%=no damage to plants and 100%=plant totally killed. *** Adjuvant system=either Adigor™ or Hexamoll DINCH™ or tris-(2-ethylhexyl) phosphate each at 0.5% v/v, and 12.5% v/v IPA (isopropyl alcohol), and 1.0% v/v AMS (ammonium sulphate); or 0.5% v/v Adigor™ and 12.5% v/v IPA (isopropyl alcohol); all percentages are final concentrations in the aqueous spray mixture. […]
The percentages of herbicidal damage/plant control, at 14 Days After herbicide Application (DAA) (or, in a minority of cases, at 15 DAA), for the Compounds tested and for some of the plants tested, were in the following percentage ranges. […] Phytotoxicity on Glycine max (GLXMA, Soybean) Cultivar “TMG133” Glycine max (GLXMA, soybean) cultivar “TMG133” is Roundup Ready™ glyphosate-tolerant soybean cultivar TMG133, and is typically available from Monsanto in Brazil.

Series [3] deals with Abutilon theophrasti (ABUTH). Description: Biological Example 1B glasshouse assay, pre-emergence application. The note with it: 250 g/ha, 13 days after application. The method, then:
(§7) Seeds of a variety of test plant species were sown in standard soil ** in pots. After cultivation for one day (pre-emergence) or after 8 days cultivation (post-emergence) under controlled conditions in a glasshouse (at 24/16° C., day/night; 14 hours light; 65% humidity), the plants were sprayed with an aqueous spray solution derived from the formulation of the technical active ingredient (the test herbicide) in acetone/water (50:50) solution containing 0.5% Tween 20 (polyoxyethylene sorbitan monolaurate, CAS Reg. No. 9005-64-5). The test plants were then grown on under controlled conditions in a glasshouse (at 24/16° C., day/night; 14 hours light; 65% humidity) and watered twice daily. 13 Days after application of the test herbicide, for pre- and post-emergence, the test was evaluated visually for percentage phytotoxicity to each plant (where 100%=total damage to plant; 0%=no damage to plant). Generally, each test herbicide is only tested on 1 plant per plant species for each application rate tested and for each application timing. ** The “standard soil” in Biological Example 1 is usually a “sand” or “sandy loam” type of soil.
(§8) Dicotyledonous weeds: ABUTH=Abutilon theophrasti; AMARE=Amaranthus retroflexus. Grassy monocotyledonous weeds: SETFA=Setaria faberi; ALOMY=Alopecurus myosuroides; ECHCG=Echinochloa crus-galli; ZEAMX=Zea mays (corn, maize, e.g. volunteer corn). For Compound A16, the grassy monocotyledonous weed LOLPE (Lolium perenne) was used in the test insterad of ALOMY.

Series [4] concerns Echinochloa crus-galli (ECHCG). Described as above. The note with it: 250 g/ha, 13 days after application. The procedure:
as §7, §8

Setting [5] is: 14 DAA (A11: 14 or 15 DAA), adjuvant 0.5% v/v Adigor + 1.0% v/v AMS + 12.5% v/v IPA.
Where [6] appears, read: 14 DAA, adjuvant 0.5% v/v Adigor + 12.5% v/v IPA.

On to `CC#Cc1cc(F)c(C2C(=O)CC(CCSC)CC2=O)c(OC)c1` (stereo not shown) [Compound A11], for which, in series [1] (setting [5]), the “percentage control of (phytotoxicity on) Brachiaria decumbens (BRADC)” value was determined as 0%. The “percentage phytotoxicity on Glycine max (GLXMA, soybean) cultivar Nikko” value came to 5% in series [2] (120 g/ha, 14 DAA (A11: 14 or 15 DAA), adjuvant 0.5% v/v Adigor + 1.0% v/v AMS + 12.5% v/v IPA) and 5% in series [2] (240 g/ha, 14 DAA (A11: 14 or 15 DAA), adjuvant 0.5% v/v Adigor + 1.0% v/v AMS + 12.5% v/v IPA). For the same compound, the “percentage control of Eleusine indica (ELEIN)” value with Eleusine indica (ELEIN) (setting [5]) is given as 0%.

As to `C#CCC1CC(=O)C(c2c(F)cc(C#CC)cc2OC)C1=O` (stereo not shown) [Compound A8, 2-(2-fluoro-6-methoxy-4-prop-1-ynyl-phenyl)-4-prop-2-ynyl-cyclopentane-1,3-dione], in series [1] (setting [6]), the “percentage control of (phytotoxicity on) Brachiaria decumbens (BRADC)” value was 0%. Further, the “percentage phytotoxicity on Glycine max (GLXMA, soybean) cultivar Nikko” value in series [2] (120 g/ha, 14 DAA, adjuvant 0.5% v/v Adigor + 12.5% v/v IPA) was found to be 30%. Also, the “phytotoxicity on soybean (in words)” value in series [2] (see Biological Example 3 (soybean cultivars Nikko and TMG133)) is “low phytotoxicity”. Besides, in the series on Eleusine indica (ELEIN) (setting [6]), the “percentage control of (phytotoxicity on) Eleusine indica (ELEIN)” value is recorded as 40%. Also, in series [3], the “Percentage phytotoxicity ABUTH” value worked out at 0%. Besides, the “Percentage phytotoxicity ECHCG” value in series [4] worked out at 100%.

Source of the values: US10696686B2, “Herbicidally active (alkynyl-phenyl)-substituted cyclic dione compounds and derivatives thereof” (Syngenta Limited, priority 2013, dated 2020).
